Experimental data reported in US8609692B2, “TRPV1 antagonists” (AbbVie Inc., priority 2008, dated 2013).

Experiments:
[1] = Rat telemetry protocol (core body temperature); assay type: in vivo; conditions: core body temperature of rats at one hour post dosing (100 μmol/kg, p.o.), relative to vehicle
Experimental: Male, Sprague Dawley rats, 225-250 grams were anesthetized with Sevoflurane (Abbott Laboratories). Rats were placed on a heating pad and covered with a sterile surgical drape. A ventral midline abdominal incision was made and sterile cotton tip applicators were used to gently move internal tissue and expose the abdominal aorta for implantation of the telemetry catheter (Data Sciences International; TL11M2-050-PXT). Blood flow was temporarily stopped to the lower extremities (5-7 min) with Diffenbach clamps to allow the insertion of the telemetry catheter into the abdominal aorta. Once inserted, a sterile cellulose patch was placed over the catheter/aorta and secured using a small amount of tissue adhesive (Vetbond, 3M). Once catheter placement was complete, the clamps were removed and blood flow was restored to the lower extremities. The transmitter was placed in the intraperitoneal cavity. The transmitter suture rib was sewn into the abdominal sutures to secure it in place. The skin was closed using sterile wound clips and the animal removed from Sevoflurane. Buprenex ([…] s.c.; Phoenix) was administered for post-operative analgesia. Animals were maintained on a heating pad until ambulatory, and then individually housed with food and water ad lib. Surgical staples were removed after 7-10 days post-implantation. Rats were allowed a 2-week post-surgical recovery period before treatment with test compound. Oral dosing (p.o.) was at time zero, with rats receiving a single dose of vehicle (10% EtOH, 20% Tween-80, 70% PEG-400) or a 100 μmol/kg dose of compound dissolved in vehicle. Temperature measurements were recorded every 15 minutes for the duration of the study (24 hours).
The term “core body temperature” as used herein, means the temperature measured in the intraperitoneal cavity.

[2] = molecular target: T1, human TRPV1 receptor (hTRPV1) (Homo sapiens, UniProt Q8NER1); test: Capsaicin activation assay (Ca2+ influx, FLIPR); assay type: cell-based; conditions: 0.05 μM capsaicin, 1321N1 cells expressing hTRPV1
T1 construct: expressed in transfected cells
T1 sequence (Q8NER1 whole entry): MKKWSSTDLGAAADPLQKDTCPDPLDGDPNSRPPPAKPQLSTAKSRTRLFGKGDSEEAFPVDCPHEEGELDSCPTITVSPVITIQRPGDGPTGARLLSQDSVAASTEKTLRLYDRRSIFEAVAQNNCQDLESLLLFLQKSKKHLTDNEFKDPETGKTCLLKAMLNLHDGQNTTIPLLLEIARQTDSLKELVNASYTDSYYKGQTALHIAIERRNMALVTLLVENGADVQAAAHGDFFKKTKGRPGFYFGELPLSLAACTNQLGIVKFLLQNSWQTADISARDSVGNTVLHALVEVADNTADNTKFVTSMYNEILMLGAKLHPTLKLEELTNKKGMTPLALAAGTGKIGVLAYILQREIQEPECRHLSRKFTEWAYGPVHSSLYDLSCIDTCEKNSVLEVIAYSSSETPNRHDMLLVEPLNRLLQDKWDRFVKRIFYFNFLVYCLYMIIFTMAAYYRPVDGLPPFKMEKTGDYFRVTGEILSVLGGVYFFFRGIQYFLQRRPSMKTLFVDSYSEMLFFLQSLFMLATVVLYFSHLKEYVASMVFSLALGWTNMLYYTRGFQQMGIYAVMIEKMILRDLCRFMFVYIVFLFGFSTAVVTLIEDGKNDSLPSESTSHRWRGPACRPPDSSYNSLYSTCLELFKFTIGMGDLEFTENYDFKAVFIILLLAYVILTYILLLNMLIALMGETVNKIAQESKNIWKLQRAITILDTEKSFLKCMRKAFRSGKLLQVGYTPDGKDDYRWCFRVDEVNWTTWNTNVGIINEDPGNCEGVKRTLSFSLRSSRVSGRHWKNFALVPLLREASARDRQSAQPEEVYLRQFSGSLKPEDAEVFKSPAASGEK
Experimental: Dulbecco's modified Eagle medium (D-MEM) (with 4.5 mg/mL glucose) and fetal bovine serum were obtained from Hyclone Laboratories, Inc. (Logan, Utah). Dulbecco's phosphate-buffered saline (D-PBS) (with 1 mg/mL glucose and 3.6 mg/l Na pyruvate, without phenol red), L-glutamine, hygromycin B, and Lipofectamine® were obtained from Life Technologies (Grand Island, N.Y.). G418 sulfate was obtained from Calbiochem-Novabiochem Corp. (San Diego, Calif.). Capsaicin (8-methyl-N-vanillyl-6-nonenamide) was obtained from Sigma-Aldrich, Co. (St. Louis, Mo.). Fluo-4 AM (N-[4-[6-[(acetyloxy)methoxy]-2,7-difluoro-3-oxo-3H-xanthen-9-yl]-2-[2-[2-[bis[2-[(acetyloxy)methoxy]-2-oxyethyl]amino]-5-methyl-phenoxy]ethoxy]phenyl]-N-[2-[(acetyloxy)methoxy]-2-oxyethyl]-glycine, (acetyloxy)methyl ester) was purchased from Molecular Probes (Eugene, Oreg.).
The cDNAs for the human TRPV1 receptor (hTRPV1) were isolated by reverse transcriptase-polymerase chain reaction (RT-PCR) from human small intestine poly A+RNA supplied by Clontech (Palo Alto, Calif.) using primers designed surrounding the initiation and termination codons identical to the published sequences (Hayes et al. Pain 2000, 88, 205-215). The resulting cDNA PCR products were subcloned into pCIneo mammalian expression vector (Promega) and fully sequenced using fluorescent dye-terminator reagents (Prism, Perkin-Elmer Applied Biosystems Division) and a Perkin-Elmer Applied Biosystems Model 373 DNA sequencer or Model 310 genetic analyzer. Expression plasmids encoding the hTRPV1 cDNA were transfected individually into 1321N1 human astrocytoma cells using Lipofectamine®. Forty-eight hours after transfection, the neomycin-resistant cells were selected with growth medium containing 800 μg/mL Geneticin (Gibco BRL). Surviving individual colonies were isolated and screened for TRPV1 receptor activity. Cells expressing recombinant homomeric TRPV1 receptors were maintained at 37° C. in D-MEM containing 4 mM L-glutamine, 300 μg/mL G418 (Cal-biochem) and 10% fetal bovine serum under a humidified 5% CO2 atmosphere.
The functional activity of compounds at the TRPV1 receptor was determined with a Ca^2+ influx assay and measurement of intracellular Ca^2+ levels ([Ca^2+]i). All compounds were tested over an 11-point half-log concentration range. Compound solutions were prepared in D-PBS (4× final concentration), and diluted serially across 96-well v-bottom tissue culture plates using a Biomek 2000 robotic automation workstation (Beckman-Coulter, Inc., Fullerton, Calif.). A 0.2 μM solution of the TRPV1 agonist capsaicin was also prepared in D-PBS. The fluorescent Ca^2+ chelating dye Fluo-4 AM was used as an indicator of the relative levels of [Ca^2+]i in a 96-well format using a Fluorescence Imaging Plate Reader (FLIPR) (Molecular Devices, Sunnyvale, Calif.). Cells were grown to confluency in 96-well black-walled tissue culture plates. Then, prior to the assay, the cells were loaded with 100 μL per well of Fluo-4 AM (2 μM, in D-PBS) for 1-2 hours at 23° C. Washing of the cells was performed to remove extracellular Fluo-4 AM (2×1 mL D-PBS per well), and afterward, the cells were placed in the reading chamber of the FLIPR instrument. 50 μL of the compound solutions were added to the cells at the 10 second time mark of the experimental run. Then, after a 3-minute time delay, 50 μL of the capsaicin solution was added at the, 190 second time mark (0.05 μM final concentration)(final volume=200 μL) to challenge the TRPV1 receptor. Time length of the experimental run was 240 seconds. Fluorescence readings were made at 1 to 5 second intervals over the course of the experimental run. The peak increase in relative fluorescence units (minus baseline) was calculated from the 190 second time mark to the end of the experimental run, and expressed as a percentage of the 0.05 μM capsaicin (control) response. […]

| Compound | IC50 [2] [µM] | Δ Temp [1] [°C] |
| --- | --- | --- |
| Cn1ncc2c(NC(=O)N[C@@H]3CC(C)(C)Oc4ccc(F)cc43)cccc21 [Example 1, N-[(4R)-6-fluoro-2,2-dimethyl-3,4-dihydro-2H-chromen-4-yl]-N′-(1-methyl-1H-indazol-4-yl)urea] | 0.229 | 0.5 |
| CC1(C)C[C@@H](NC(=O)Nc2cccc3c2C[C@@H](O)CC3)c2cc(F)ccc2O1 [Example 3, N-[(4R)-6-fluoro-2,2-dimethyl-3,4-dihydro-2H-chromen-4-yl]-N′-[(7S)-7-hydroxy-5,6,7,8-tetrahydronaphthalen-1-yl]urea] | 0.032 | 0.6 |
| CC1(C)C[C@@H](NC(=O)Nc2cccc3c2C[C@H](O)CC3)c2cc(F)ccc2O1 [Example 4, N-[(4R)-6-fluoro-2,2-dimethyl-3,4-dihydro-2H-chromen-4-yl]-N′-[(7R)-7-hydroxy-5,6,7,8-tetrahydronaphthalen-1-yl]urea] | 0.03 | 0.6 |
| O=C(Nc1cccc2c1C[C@@H](O)CC2)N[C@@H]1CC2(CCC2)Oc2ccc(F)cc21 [Example 9, N-[(4R)-6-fluoro-3,3′,4,4′-tetrahydro-2′H-spiro[chromene-2,1′-cyclobutan]-4-yl]-N′-[(7S)-7-hydroxy-5,6,7,8-tetrahydronaphthalen-1-yl]urea] | 0.028 | 0.9 |
| CC1(C)C[C@@H](NC(=O)Nc2cccc3c2C[C@H](O)CC3)c2cc(F)cc(F)c2O1 [Example 18, N-[(4R)-6,8-difluoro-2,2-dimethyl-3,4-dihydro-2H-chromen-4-yl]-N′-[(7R)-7-hydroxy-5,6,7,8-tetrahydronaphthalen-1-yl]urea] | 0.029 | 1.4 |
| Cn1ncc2c(NC(=O)N[C@@H]3CC(C)(C)Oc4cc(F)ccc43)cccc21 [Example 24, N-[(4R)-7-fluoro-2,2-dimethyl-3,4-dihydro-2H-chromen-4-yl]-N′-(1-methyl-1H-indazol-4-yl)urea] | 0.052 | 1.3 |
| CC1(C)C[C@@H](NC(=O)Nc2cccc3c2C[C@H](O)CC3)c2ccccc2O1 [Example 36, N-[(4R)-2,2-dimethyl-3,4-dihydro-2H-chromen-4-yl]-N′-[(7R)-7-hydroxy-5,6,7,8-tetrahydronaphthalen-1-yl]urea] | 0.033 | 0.7 |
| CC1(C)C[C@@H](NC(=O)Nc2cccc3ccncc23)c2ccc(C(F)(F)F)cc2O1 [Example 43, N-[(4R)-2,2-dimethyl-7-(trifluoromethyl)-3,4-dihydro-2H-chromen-4-yl]-N′-isoquinolin-8-ylurea] | 0.028 | 1.5 |
| CCC1(CC)C[C@@H](NC(=O)Nc2cccc3c2cnn3C)c2ccc(C(F)(F)F)cc2O1 [Example 49, N-[(4R)-2,2-diethyl-7-(trifluoromethyl)-3,4-dihydro-2H-chromen-4-yl]-N′-(1-methyl-1H-indazol-4-yl)urea] | 0.071 | 1.3 |
| CCC1(CC)C[C@@H](NC(=O)Nc2cccc3c2C[C@H](O)CC3)c2cc(F)ccc2O1 [Example 54, N-[(4R)-2,2-diethyl-6-fluoro-3,4-dihydro-2H-chromen-4-yl]-N′-[(7R)-7-hydroxy-5,6,7,8-tetrahydronaphthalen-1-yl]urea] | 0.038 | 1.0 |

Now those with a lower IC50 [2], led by results:

| IC50 [2] [µM] | Compound | Δ Temp [1] [°C] |
| --- | --- | --- |
| 0.013 | CC1(C)C[C@@H](NC(=O)Nc2cccc3[nH]ncc23)c2ccc(F)cc2O1 [Example 29, N-[(4R)-7-fluoro-2,2-dimethyl-3,4-dihydro-2H-chromen-4-yl]-N′-1H-indazol-4-ylurea] | 1.2 |
| 0.014 | Cn1ncc2c(NC(=O)N[C@@H]3CC(C)(C)Oc4cc(C(F)(F)F)ccc43)cccc21 [Example 33, N-[(4R)-2,2-dimethyl-7-(trifluoromethyl)-3,4-dihydro-2H-chromen-4-yl]-N′-(1-methyl-1H-indazol-4-yl)urea] | 1.4 |
| 0.025 | Cn1ncc2c(NC(=O)N[C@@H]3CC(C)(C)Oc4cc(OC(F)(F)F)ccc43)cccc21 [Example 39, N-[(4R)-2,2-dimethyl-7-(trifluoromethoxy)-3,4-dihydro-2H-chromen-4-yl]-N′-(1-methyl-1H-indazol-4-yl)urea] | 0.7 |
| 0.005 | CC1(C)C[C@@H](NC(=O)Nc2cccc3cnccc23)c2ccc(OC(F)(F)F)cc2O1 [Example 40, N-[(4R)-2,2-dimethyl-7-(trifluoromethoxy)-3,4-dihydro-2H-chromen-4-yl]-N′-isoquinolin-5-ylurea] | 0.8 |
| 0.02 | Cn1ncc2c(NC(=O)N[C@@H]3CC(C)(C)Oc4c3cccc4C(F)(F)F)cccc21 [Example 42, N-[(4R)-2,2-dimethyl-8-(trifluoromethyl)-3,4-dihydro-2H-chromen-4-yl]-N′-(1-methyl-1H-indazol-4-yl)urea] | 0.6 |
| 0.011 | CC1(C)C[C@@H](NC(=O)Nc2cccc3[nH]ncc23)c2cccc(C(F)(F)F)c2O1 [Example 45, N-[(4R)-2,2-dimethyl-8-(trifluoromethyl)-3,4-dihydro-2H-chromen-4-yl]-N′-1H-indazol-4-ylurea] | 0.5 |
| 0.017 | CCC1(CC)C[C@@H](NC(=O)Nc2cccc3c2cnn3C)c2ccc(F)cc2O1 [Example 46, N-[(4R)-2,2-diethyl-7-fluoro-3,4-dihydro-2H-chromen-4-yl]-N′-(1-methyl-1H-indazol-4-yl)urea] | 0.7 |
| 0.02 | CCC1(CC)C[C@@H](NC(=O)Nc2cccc3c2C[C@H](O)CC3)c2cccc(F)c2O1 [Example 52, N-[(4R)-2,2-diethyl-8-fluoro-3,4-dihydro-2H-chromen-4-yl]-N′-[(7R)-7-hydroxy-5,6,7,8-tetrahydronaphthalen-1-yl]urea] | 1.2 |
| 0.016 | Cn1ncc2c(NC(=O)N[C@@H]3CCOc4c3cccc4C(F)(F)F)cccc21 [Example 59, N-(1-methyl-1H-indazol-4-yl)-N′-[(4R)-8-(trifluoromethyl)-3,4-dihydro-2H-chromen-4-yl]urea] | 0.5 |
| 0.025 | N-[(2R,4R)-2-(fluoromethyl)-2-methyl-7-(trifluoromethyl)-3,4-dihydro-2H-chromen-4-yl]-N-(3-methylisoquinolin-5-yl)urea [Example 127] | – |
| 0.021 | N-[(4R)-2,2-diethyl-8-fluoro-3,4-dihydro-2H-chromen-4-yl]-N-isoquinolin-8-ylurea [Example 83] | – |
